Experimental data from US20200223889A1, “Bicyclic Compounds Capable of Binding to Melanocortin 4 Receptor” (Novo Nordisk A/S, priority 2017, published 2020).
Where two headings read alike, the source gives them in different places. Positions of bridges follow the written chain, without caps; N, C: chain ends. Non-standard residues stand in square brackets, D forms with d. Residues, ends and D or L forms follow the SMILES beside them. Ser(ΨH,HPro) = O=C(O)[C@@H]1COCN1; Hyp = O=C(O)[C@@H]1C[C@@H](O)CN1; hCit = NC(=O)NCCCC[C@H](N)C(=O)O; Orn = NCCC[C@H](N)C(=O)O; Thz = O=C(O)[C@@H]1CSCN1

What was measured:
[1] = target: T1, human MC4R (Homo sapiens, UniProt P32245); assay: Functional cAMP assay (CisBio HTRF) in BHK cells expressing human MC4R; assay type: cell-based; conditions: for MC1R/MC4R cAMP EC50 ratio: MC1R cAMP EC50 divided by MC4R cAMP EC50
T1 construct: expressed in transfected cells
Method in brief: (§1)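 Stably transfected BHK cells expressing human MC1R or MC4R; cAMP quantified by HTRF (cAMP-d2/cryptate) after 30 min compound stimulation at 25 °C in DMEM-based buffer with 1 mM IBMX. Compounds were prepared as 10-fold serial dilutions starting at 2 μM (working solution, 2× final). Readout after 1 h at 25 °C; non-linear regression.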

[2] = In vivo acute food intake model (BioDAQ) in C57BL/6J male mice; conditions: single subcutaneous dose 1 mg/kg, cumulative food intake
Experimental: The MC4R system is central to appetite regulation and agonists are known inhibit food intake. In order to screen compounds in a relevant in vivo model, efficacy was assessed by determining the effect of the compound on reducing food intake acutely in mice.
All animal protocols were approved by an Institutional Animal Care and Use Committee and Ethical Review Committee of Novo Nordisk. Animals were housed according to Novo Nordisk rodent housing standards, and were given ad libitum access to food and water under controlled lighting (12 h:12 h light/dark cycle; lights off 11:00-23:00), temperature (23±2° C.) and relative humidity (50±20%) conditions. For each acute food intake study C57BL/6J male mice (25-30 grams body weight) were acclimated for two weeks to the appropriate light cycle and to single-housing (one mouse per cage) in cages linked to a BioDAQ automated food intake system (Research Diets Inc., New Brunswick, N.J. USA). The animals were also acclimated to new food (Research Diets 12450B, 10% kcal fat) during this time.
The BioDAQ is a computer automated scientific instrument for Biological Data Acquisition of food intake in rodents and measures food intake from each cage every 15 minutes. A total of 32 animals can be accommodated in the system per study, therefore, animals were randomized into 4 groups of n=8 for each study. […] Animals were fasted ˜4 hr prior to dosing. Vehicle (10 mM phosphate; 140 mM sodium chloride) or compound was dosed at a volume of 10 ml per kg subcutaneously approximately 20 minutes prior to the start of the dark cycle (compound chem no. and dosages are indicated in table 2 below). After dosing, food intake was recorded for approximately 24 hours.
The inhibitory effect of compounds on food intake was generally well-correlated with in vitro binding affinity on the human MC4 receptor and with plasma stability of the compound. Most studies were conducted as dose response studies with vehicle and the compound at 3 doses (0.3, 1 and 3 mg/kg). Some studies were done for the purpose of dose-range finding, while others were done to comparatively assess the effect of 3 compounds at the same dose. Maximal effects on food intake occurred within the first 1-5 hours post-dose. The comparative effect of compounds across studies on food intake was assessed by normalizing measurements as % effect on cumulative food intake after a single subcutaneous dose, relative to vehicle. Results are reported in Table 2 as % effect on food intake at 3 hours post dose.

[3] = target: T1, human MC4R; assay: 125NDP-α-MSH competitive binding to membranes of BHK cells expressing human MC4 receptor (filtration assay)
Method in brief: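 Displacement of ^125NDP-α-MSH (apx. […] final) was measured by filtration after 2 h at 25 °C, using diluted membranes of stably transfected BHK cells in pH 7.0 HEPES buffer. Compounds spanned 1 μM to 0.001 nM; binding curves were analysed by non-linear regression.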

[4] = target: T2, human MC1R (Homo sapiens, UniProt Q01726); assay: Functional cAMP assay (CisBio HTRF) in BHK cells expressing human MC1R; assay type: cell-based
T2 construct: expressed in transfected cells
Method in brief: as §1

[5] = human MC4R, BHK cell membranes, 125NDP-α-MSH radioligand, read-out: MC4R binding Ki
[6] = BHK cells expressing human MC4R, '>' = highest dose used with no response, read-out: MC4R cAMP EC50
[7] = BHK cells expressing human MC1R, '>' = highest dose used with no response, read-out: MC1R cAMP EC50

T2 sequence (Q01726 whole entry): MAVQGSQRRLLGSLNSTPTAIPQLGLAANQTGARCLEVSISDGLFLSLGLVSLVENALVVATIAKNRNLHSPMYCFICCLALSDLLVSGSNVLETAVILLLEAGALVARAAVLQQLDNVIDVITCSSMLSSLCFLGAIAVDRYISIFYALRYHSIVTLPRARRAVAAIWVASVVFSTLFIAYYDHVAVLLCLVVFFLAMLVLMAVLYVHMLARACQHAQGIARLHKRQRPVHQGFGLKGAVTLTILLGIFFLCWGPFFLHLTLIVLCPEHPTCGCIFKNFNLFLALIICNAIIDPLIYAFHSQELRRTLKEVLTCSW
T1 sequence (P32245 whole entry): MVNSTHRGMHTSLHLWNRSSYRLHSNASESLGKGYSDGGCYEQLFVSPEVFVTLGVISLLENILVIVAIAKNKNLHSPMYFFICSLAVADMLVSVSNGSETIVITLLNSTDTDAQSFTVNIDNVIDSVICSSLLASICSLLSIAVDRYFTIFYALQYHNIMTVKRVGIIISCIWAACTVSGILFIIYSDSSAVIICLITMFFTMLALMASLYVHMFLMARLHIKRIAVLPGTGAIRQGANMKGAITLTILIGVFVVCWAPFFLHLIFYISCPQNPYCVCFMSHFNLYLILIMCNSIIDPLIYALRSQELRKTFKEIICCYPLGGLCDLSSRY

Row | MC1R/MC4R cAMP EC50 ratio [1] | Ki [3, 5] [pM] | EC50 [1, 6] [pM] | EC50 [4, 7] [pM] | Compound | % Effect on food intake at 3 hours post dose, relative to vehicle [2] [%] | Ki [3] [pM] | EC50 [1] [pM] | EC50 [4] [pM]
1 | 199 | 70 | 380 |  | C[C@@H]1NC(=O)[C@@H]2CSSC[C@H](NC(=O)[C@H](Cc3c[nH]c4ccccc34)NC(=O)[C@H](CCCCN)NC(=O)[C@H](CCCCN)NC(=O)[C@H](CCCCN)NC1=O)C(=O)N1C[C@H](O)C[C@H]1C(=O)N[C@@H](Cc1c[nH]cn1)C(=O)N[C@H](Cc1ccccc1)C(=O)N[C@@H](Cc1c[nH]cn1)C(=O)N[C@@H](Cc1c[nH]c3ccccc13)C(=O)N2 [Chem. 70, c[c[Cys-Hyp-His-D-Phe-His-Trp-Cys]- Ala-Lys-Lys-Lys-Trp]] (cyclo(AKKKWC[Hyp]H[dF]HWC); disulfide 6-12) | −39 ± 10 |  |  | 
2 | 1442 | 40 | 40 |  | C[C@@H]1NC(=O)[C@@H]2CSSC[C@H](NC(=O)[C@H](CCCNC(=N)N)NC(=O)[C@H](CCCCN)NC(=O)[C@H](CCCCN)NC(=O)[C@H](Cc3c[nH]cn3)NC1=O)C(=O)N1CCC[C@H]1C(=O)N[C@@H](Cc1c[nH]cn1)C(=O)N[C@H](Cc1ccccc1)C(=O)N[C@@H](Cc1c[nH]cn1)C(=O)N[C@@H](Cc1c[nH]c3ccccc13)C(=O)N2 [Chem. 96, c[c[Cys-Pro-His-D-Phe-His-Trp-Cys]- Ala-His-Lys-Lys-Arg]] (cyclo(AHKKRCPH[dF]HWC); disulfide 6-12) | −17 ± 14 |  |  | 
3 | 14 | 100 | 390 | 5290 | C[C@@H]1NC(=O)[C@@H]2CSSC[C@H](NC(=O)[C@H](CCCNC(=N)N)NC(=O)[C@H](CCCCN)NC(=O)[C@H](CCCCN)NC(=O)[C@H](CCCCN)NC1=O)C(=O)N1CCC[C@H]1C(=O)N[C@@H](Cc1c[nH]cn1)C(=O)N[C@H](Cc1ccccc1)C(=O)N[C@@H](CCCCNC(N)=O)C(=O)N[C@@H](Cc1c[nH]c3ccccc13)C(=O)N2 [Chem. 99, c[c[Cys-Pro-His-D-Phe-Cit-Trp-Cys]- Ala-Lys-Lys-Lys-Arg]] (cyclo(AKKKRCPH[dF][hCit]WC); disulfide 6-12) |  |  |  | 
4 | 5 | 50 | 40 | 190 | C[C@@H]1NC(=O)[C@@H]2CSSC[C@H](NC(=O)[C@H](Cc3c[nH]c4ccccc34)NC(=O)[C@H](CCCNC(=N)N)NC(=O)[C@@H](Cc3ccccc3)NC(=O)[C@H](Cc3c[nH]cn3)NC1=O)C(=O)N[C@@H](CCCCN)C(=O)N[C@@H](CCCCN)C(=O)N[C@@H](CCCCN)C(=O)N[C@@H](CCCNC(=N)N)C(=O)N2 [Chem. 101, c[c[Cys-Ala-His-D-Phe-Arg-Trp-Cys]- Lys-Lys-Lys-Arg]] (cyclo(AH[dF]RWCKKKRC); disulfide 6-11) |  |  |  | 

More lines, now with the values behind:

Row | Compound | MC1R/MC4R cAMP EC50 ratio [1] | Ki [3, 5] [pM] | EC50 [1, 6] [pM] | EC50 [4, 7] [pM] | % Effect on food intake at 3 hours post dose, relative to vehicle [2] [%] | Ki [3] [pM] | EC50 [1] [pM] | EC50 [4] [pM]
5 | NCCCC[C@@H]1NC(=O)[C@@H]2CSSC[C@H](NC(=O)[C@H](Cc3c[nH]c4ccccc34)NC(=O)[C@H](Cc3c[nH]cn3)NC(=O)[C@@H](Cc3ccccc3)NC(=O)[C@H](Cc3c[nH]cn3)NC1=O)C(=O)N[C@@H](CCCCN)C(=O)N[C@@H](Cc1c[nH]cn1)C(=O)N[C@H](Cc1ccccc1)C(=O)N[C@@H](Cc1c[nH]cn1)C(=O)N[C@@H](Cc1c[nH]c3ccccc13)C(=O)N2 [Chem. 52, c[c[Cys-Lys-His-D-Phe-His-Trp-Cys]- Lys-His-D-Phe-His-Trp]] (cyclo(CKH[dF]HWCKH[dF]HW); disulfide 1-7) | 207 |  |  |  | −66 ± 9 |  |  | 
6 | C[C@@H]1NC(=O)[C@@H]2CSSC[C@H](NC(=O)[C@H](Cc3c[nH]c4ccccc34)NC(=O)[C@H](CCCCN)NC(=O)[C@H](CCCCN)NC(=O)[C@H](CCCCN)NC1=O)C(=O)N1CSC[C@H]1C(=O)N[C@@H](Cc1c[nH]cn1)C(=O)N[C@H](Cc1ccccc1)C(=O)N[C@@H](Cc1c[nH]cn1)C(=O)N[C@@H](Cc1c[nH]c3ccccc13)C(=O)N2 [Chem. 81, c[c[Cys-THAZ-His-D-Phe-His-Trp- Cys]-Ala-Lys-Lys-Lys-Trp]] (cyclo(AKKKWC[Thz]H[dF]HWC); disulfide 6-12) | 957 |  |  |  | −72 ± 7 | 30 | 70 | 
7 | C[C@@H]1NC(=O)[C@H](CCC(=O)O)NC(=O)[C@H](CCC(=O)O)NC(=O)[C@H](C)NC(=O)[C@@H]2CSSC[C@H](NC(=O)[C@H](Cc3c[nH]c4ccccc34)NC1=O)C(=O)N[C@@H](C)C(=O)N[C@@H](Cc1c[nH]cn1)C(=O)N[C@H](Cc1ccccc1)C(=O)N[C@@H](CCCNC(=N)N)C(=O)N[C@@H](Cc1c[nH]c3ccccc13)C(=O)N2 [Chem. 102, c[c[Cys-Ala-His-D-Phe-Arg-Trp-Cys]- Ala-Glu-Glu-Ala-Trp]] (cyclo(AEEAWCAH[dF]RWC); disulfide 6-12) | 29 |  |  |  |  | 10100 | 490 | 14300
8 | C[C@@H]1NC(=O)[C@@H]2CSSC[C@H](NC(=O)[C@H](Cc3c[nH]c4ccccc34)NC(=O)[C@H](CCCCN)NC(=O)[C@H](CCCCN)NC(=O)[C@H](CCCCN)NC1=O)C(=O)N1COC[C@H]1C(=O)N[C@@H](Cc1c[nH]cn1)C(=O)N[C@H](Cc1ccccc1)C(=O)N[C@@H](Cc1c[nH]cn1)C(=O)N[C@@H](Cc1c[nH]c3ccccc13)C(=O)N2 [Chem. 103, c[c[Cys-OXA-His-D-Phe-His-Trp- Cys]-Ala-Lys-Lys-Lys-Trp]] (cyclo(AKKKWC[Ser(ΨH,HPro)]H[dF]HWC); disulfide 6-12) | >1400 | 60 | 50 | > 70000 |  |  |  | 
9 | C[C@@H]1NC(=O)[C@H](C)NC(=O)[C@@H]2CSSC[C@H](NC(=O)[C@H](Cc3c[nH]c4ccccc34)NC(=O)[C@H](C)NC(=O)[C@H](CCCCN)NC1=O)C(=O)N1CSC[C@H]1C(=O)N[C@@H](Cc1c[nH]cn1)C(=O)N[C@H](Cc1ccccc1)C(=O)N[C@@H](Cc1c[nH]cn1)C(=O)N[C@@H](Cc1c[nH]c3ccccc13)C(=O)N2 [Chem. 109, c[c[Cys-THAZ-His-D-Phe-His-Trp- Cys]-Ala-Ala-Lys-Ala-Trp]] (cyclo(AAKAWC[Thz]H[dF]HWC); disulfide 6-12) | >47 |  |  |  |  | 300 | 150 | > 7000
10 | C[C@@H]1NC(=O)[C@@H]2CSSC[C@H](NC(=O)[C@H](Cc3c[nH]c4ccccc34)NC(=O)[C@H](CCCNC(=N)N)NC(=O)[C@@H](Cc3ccccc3)NC(=O)[C@H](Cc3c[nH]cn3)NC1=O)C(=O)N1CCC[C@H]1C(=O)N1CCC[C@H]1C(=O)N[C@@H](CCC(=O)O)C(=O)N[C@@H](CCCNC(=N)N)C(=O)N[C@@H](Cc1c[nH]c3ccccc13)C(=O)N2 [Chem. 112, c[c[Cys-Ala-His-D-Phe-Arg-Trp-Cys]- Pro-Pro-Glu-Arg-Trp]] (cyclo(AH[dF]RWCPPERWC); disulfide 6-12) | 159 | 1210 | 190 | 30200 |  |  |  | 
11 | C[C@@H]1NC(=O)[C@@H]2CSSC[C@H](NC(=O)[C@H](CCCNC(=N)N)NC(=O)[C@H](CCCN)NC(=O)[C@H](CCC(=O)O)NC(=O)[C@H](Cc3c[nH]cn3)NC1=O)C(=O)N1CSC[C@H]1C(=O)N[C@@H](Cc1c[nH]cn1)C(=O)N[C@H](Cc1ccccc1)C(=O)N[C@@H](Cc1c[nH]cn1)C(=O)N[C@@H](Cc1c[nH]c3ccccc13)C(=O)N2 [Chem. 120, c[c[Cys-THAZ-His-D-Phe-His-Trp- Cys]-Ala-His-Glu-Orn-Arg]] (cyclo(AHE[Orn]RC[Thz]H[dF]HWC); disulfide 6-12) | 3673 |  |  |  | −28 ± 12 |  | 80 | 
